Measured values published in US20260193229A1, “BRISC DEUBIQUITINATING ENZYME INHIBITORS” (THE TRUSTEES OF THE UNIVERSITY OF PENNSYLVANIA, priority 2022, published 2026).
Read-outs that look alike come from different tables or passages of the source.

How the values were obtained:
[1] = target: T1, BRISC (Homo sapiens, UniProt P46736+Q15018); experiment: BRISC DUB inhibition assay with quenched K63-linked di-ubiquitin substrate (TAMRA fluorescence); assay type: biochemical
T1 construct: made in house; host or cells: insect cells (MultiBac baculovirus)
Experimental: High throughput screening. A baculoviral expression system was established to purify milligram quantities of the entire BRISC complex from insect cells. The MultiBac system was used to clone all 4 components of the BRISC complex into one vector which was then packaged into the baculovirus genome using the methods described in Zeqiraj et al., 2015 (Mol. Cell).
The assay buffer included: 50 mM HEPES-NaOH, pH 7.0; 100 mM NaCl; 1 mM DTT; 1 mg/ml BSA; and 0.03% Brij-35. BRISC was assayed at 1 nM (final concentration) with the substrate at 500 nM (final concentration). The final reaction volume was 20 μl in each 384 plate well (Corning, #3573; black, low flange, flat bottom) with a final concentration of compounds of 10 μM.
A 5 ml of enzyme solution with BRISC at 2 nM in assay buffer was made by adding 10 μl of BRISC working stock (1 μM) to 5 ml of assay buffer. A 5 ml of substrate solution was made with […] of K63-diUbiquitin (made in-house) plus […] of IQF K63-diUbiquitin by adding the appropriate volumes of diUbiquitins to 5 ml of assay buffer. 45 μL of BRISC (enzyme solution) was dispensed into columns 1-11 of a 96 well PCR plate (skirted). Buffer was only dispensed in column 12 (no enzyme control). 45 μl of substrate solution was dispensed into columns 1-12 of a 96 well PCR plate (skirted). The plate was spun down at 3000 rpm (bench top centrifuge) at room temp for 2 min to remove any air bubbles. Using a Biomek FX, liquid handler (Bekman), 10 μl of BRISC (enzyme solution) was dispensed into the 4 quadrants of a 384 well plate. 200 nl of compounds was dispensed into each well of the 384 plates using the pin tool (columns A and B usually contain DMSO only, and serve as controls), and the plates were incubated for 10-15 minutes at room temperature. 10 μl of substrate solution was dispensed into the 4 quadrants of the 384 well plate. The plate was then incubated for 30 min at room temperature in the dark and read with settings suitable for detecting TAMRA fluorescence (excitation wavelength of 540 nm and emission wavelength of 580 nm). A PHERAStar plate (BMG labtech) reader was used with a gain value of 570. The Intensity/Background (I/Bg), defined as [(Average of columns 1 and 2; DMSO controls)/(Average of columns 23 and 24; no enzyme controls)], were about 5.
The activities of the compounds disclosed in the present disclosure in inhibiting BRCC36 enzyme activity was measured in accordance with the method disclosed in Example 2.

[2] = target: T2, USP2 (Homo sapiens, UniProt O75604); experiment: Selectivity counter-assay against USP2; assay type: biochemical; details: FIG. 6C / 7A
T2 sequence (O75604 1-605): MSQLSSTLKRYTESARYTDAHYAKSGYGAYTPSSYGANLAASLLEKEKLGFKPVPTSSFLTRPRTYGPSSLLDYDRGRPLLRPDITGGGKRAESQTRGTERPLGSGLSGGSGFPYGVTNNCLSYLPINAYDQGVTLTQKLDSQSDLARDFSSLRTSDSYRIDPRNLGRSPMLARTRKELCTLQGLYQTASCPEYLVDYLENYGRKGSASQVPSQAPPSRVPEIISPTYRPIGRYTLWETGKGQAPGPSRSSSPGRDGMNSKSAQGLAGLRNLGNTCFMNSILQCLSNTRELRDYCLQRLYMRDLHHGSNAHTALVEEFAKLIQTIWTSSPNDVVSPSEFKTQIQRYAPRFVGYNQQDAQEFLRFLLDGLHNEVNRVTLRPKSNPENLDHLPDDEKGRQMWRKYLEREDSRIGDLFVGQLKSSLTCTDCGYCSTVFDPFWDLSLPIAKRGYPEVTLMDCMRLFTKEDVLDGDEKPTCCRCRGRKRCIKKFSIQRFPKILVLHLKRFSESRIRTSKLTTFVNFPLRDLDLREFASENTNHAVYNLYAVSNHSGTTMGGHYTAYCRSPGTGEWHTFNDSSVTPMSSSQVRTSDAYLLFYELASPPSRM

[3] = system: trypsin; experiment: Selectivity counter-assay against trypsin; assay type: biochemical; details: FIG. 6C / 7A
[4] = target: ARISC (BRCC36-Abraxas-BRCC45-MERIT40) (Homo sapiens, UniProt P46736); experiment: Cross-reactivity against ARISC holoenzyme; assay type: biochemical; details: FIG. 7A
[5] = target: RAP80 (BRCC36-Abraxas-BRCC45-MERIT40-RAP80) complex (Homo sapiens, UniProt P46736); experiment: Cross-reactivity against RAP80 holoenzyme; assay type: biochemical; details: FIG. 7A
[6] = target: T3, BRCC36 enzyme activity (Homo sapiens, UniProt P46736+Q15018); experiment: Mode of inhibition: increasing di-Ubiquitin substrate and free Zn2+; assay type: biochemical
T3 construct: made in house; host or cells: insect cells (MultiBac baculovirus)

[7] = system: human cells; experiment: Cellular toxicity in human cells; assay type: cell-based; details: 5 μM
[8] = Table 2, method of Example 2, read-out: BRISC IC50 μM Range

Row | SMILES | IC50 ([1]; Table 1, Activity Range Table) | IC50 [1, 8] | other results
1 | O=C(NC1CCNCC1)c1nn(C(=O)c2c(Cl)cccc2Cl)cc1NC(=O)c1c(Cl)cccc1Cl [Compound 1, 4-(2,6-dichlorobenzamido)-1-(2,6-dichlorobenzoyl)-N-(piperidin-4-yl)-1H-pyrazole-3-carboxamide] | 1 to 10 µM |  | selectivity for BRISC versus USP2 [2]: selectivity for BRISC; selectivity for BRISC versus trypsin [3]: selectivity for BRISC; cross reactivity to ARISC holoenzyme [4]: no significant cross reactivity; cross reactivity to RAP80 holoenzyme [5]: no significant cross reactivity; mode of inhibition [6]: non-competitive inhibitors
2 | O=C(NC1CCNCC1)c1nn(C(=O)Nc2cccc(Cl)c2)cc1NC(=O)c1c(Cl)cccc1Cl [Compound 36] | 50 to 300 µM |  | 
3 | C#CCCCCOc1ccc(S(=O)(=O)n2cc(NC(=O)c3c(Cl)cccc3Cl)c(C(=O)NC3CCNCC3)n2)cc1 [Compound 41, 4-(2,6-Dichlorobenzamido)-1-(4-(hex-5-ynyloxy)phenylsulfonyl)-N-(piperidin-4-yl)-1H-pyrazole-3-carboxamide] |  | 1 to 10 µM | 
4 | CCOc1cc(C(C)(C)C)ccc1C1=N[C@@](C)(c2ccc(Cl)cc2)[C@@](C)(c2ccc(Cl)cc2)N1C(=O)N1CCN(CC(=O)NCCOCCOCCn2cc(CCCCOc3ccc(S(=O)(=O)n4cc(NC(=O)c5c(Cl)cccc5Cl)c(C(=O)NC5CCNCC5)n4)cc3)nn2)CC1 [Compound 42, 1-(4-(4-(1-(2-(2-(2-(2-(4-((4S,5R)-2-(4-Tert-butyl-2-ethoxyphenyl)-4,5-bis(4-chlorophenyl)-4,5-dimethyl-4,5-dihydro-1H-imidazole-1-carbonyl)piperazin-1-yl)acetamido)ethoxy)ethoxy)ethyl)-1H-1,2,3-triazol-4-yl)butoxy)phenylsulfonyl)-4-(2,6-dichlorobenzamido)-N-(piperidin-4-yl)-1H-pyrazole-3-carboxamide] |  | 0.1 to 1 µM | 
5 | Cc1ncsc1-c1ccc(CNC(=O)[C@@H]2C[C@H](O)CN2C(=O)[C@@H](NC(=O)COCCOCCOCCn2cc(CCCCOc3ccc(S(=O)(=O)n4cc(NC(=O)c5c(Cl)cccc5Cl)c(C(=O)NC5CCNCC5)n4)cc3)nn2)C(C)(C)C)cc1 [Compound 43, 4-(2,6-dichlorobenzamido)-1-(4-(4-(1-((S)-13-((2S,4S)-4-hydroxy-2-(4-(4-methylthiazol-5-yl)benzylcarbamoyl)pyrrolidine-1-carbonyl)-14,14-dimethyl-11-oxo-3,6,9-trioxa-12-azapentadecyl)-1H-1,2,3-triazol-4-yl)butoxy)phenylsulfonyl)-N-(piperidin-4-yl)-1H-pyrazole-3-carboxamide] |  | 0.1 to 1 µM | 
6 | COC(=O)c1cnc2c(SCc3ccccn3)cccc2c1 [Compound 54] |  | 10 to 50 µM | 

Continued, in another order:

Row | IC50 ([1]; Table 1, Activity Range Table) | IC50 [1, 8] | SMILES | other results
7 | 1 to 10 µM |  | CS(=O)(=O)n1cc(NC(=O)c2c(Cl)cccc2Cl)c(C(=O)NC2CCNCC2)n1 [Compound 2, 4-(2,6-dichlorobenzamido)-1-(methylsulfonyl)-N-(piperidin-4-yl)-1H-pyrazole-3-carboxamide] | cellular toxicity [7]: no detectable cellular toxicity
8 | 50 to 300 µM |  | COC(=O)COc1ccc(S(=O)(=O)n2cc(NC(=O)c3c(Cl)cccc3Cl)c(C(=O)NC3CCNCC3)n2)cc1 [Compound 33, Methyl 2-(4-(4-(2,6-dichlorobenzamido)-3-(piperidin-4-ylcarbamoyl)-1H-pyrazol-1-ylsulfonyl)phenoxy)acetate] | 
9 | 50 to 300 µM |  | NCCCOc1ccc(S(=O)(=O)n2cc(NC(=O)c3c(Cl)cccc3Cl)c(C(=O)NC3CCNCC3)n2)cc1 [Compound 34, 1-(4-(3-aminopropoxy)phenylsulfonyl)-4-(2,6-dichlorobenzamido)-N-(piperidin-4-yl)-1H-pyrazole-3-carboxamide] | 
10 | 50 to 300 µM |  | O=C(NC1CCNCC1)c1nn(C(=O)Nc2ccc(Cl)cc2)cc1NC(=O)c1c(Cl)cccc1Cl [Compound 35] | 
11 | 1 to 10 µM |  | CN1CCC(NC(=O)c2nn(C(=O)c3c(Cl)cccc3Cl)cc2NC(=O)c2c(Cl)cccc2Cl)CC1 [Compound 37] | 
12 |  | 1 to 10 µM | C[C@@H]1CNCCN1C(=O)c1nn(C(=O)c2c(Cl)cccc2Cl)cc1NC(=O)c1c(Cl)cccc1Cl [Compound 55] | 
